Measurements as given in patent US5702934A, “Processes for producing an enzyme” (priority 1993, dated 1997).
Where two headings read alike, the source gives them in different places.

Experiments:
[1] = target: T1, trypsin-like Fusarium oxysporum protease (F. oxysporum DSM 2672), SEQ ID NO: 2 (Fusarium oxysporum, UniProt P35049); assay: Tryptic activity (L-BAPNA) of the trypsin-like protease with or without 1,10-phenanthroline; type: biochemical
T1 construct: made in house; host or cells: Aspergillus oryzae IFO 4177 transformed with pSX183
Experimental: (§1) The tryptic activity is measured in microtiter plates; 100 μl samples are mixed with 100 μl of substrate (Stock: 87 mg/ml L-BAPNA (Sigma) in DMSO, diluted 50-fold in buffer) and the absorption at 405 nm is measured using a Thermomax microplate reader from Molecular Devices.
(§2) Metalloproteases contain a catalytic zinc metal center which participates in the hydrolysis of the peptide backbone. The active zinc center differentiates these proteases from calpains whose activities are dependent upon the presence of calcium. Confirmation of a protease as a metallo-protease is loss of proteolytic activity accomplished by removal of the zinc center with 1,10-phenanthroline (1 mM) followed by titration with Zn^2+ (0.1-100μM) to restore full activity.

[2] = target: T2, Fusarium oxysporum p45 proteolytic enzyme (p45 maturase, metalloprotease), SEQ ID NO:6 (Fusarium oxysporum, UniProt M1UZ70); type: biochemical
T2 construct: apparently native maturase from F. oxysporum; recombinant p45 also made in A. oryzae
Experimental: as §1, §2

[3] = target: pro-trypsin-like Fusarium oxysporum protease (recombinant proenzyme form of the trypsin-like F. oxysporum protease) (Fusarium oxysporum DSM 2672)

**Q.** `c1cnc2c(c1)ccc1cccnc12` [1,10-phenanthroline] was tested. Which “inhibition of the trypsin-like protease (in words)” value ([1]; 1,10-phenanthroline 1 mM) did it give?
**A.** not inhibited

**Q.** And the “Tryptic Activity (Δ Abs/min × 10^-4)” value ([1]; 1,10-phenanthroline 1 mM, no Zn2+, without inhibitor 34.0)?
**A.** 33.8 Δ Abs/min × 10^-4

**Q.** And the “tryptic activity with inhibitor addition” value ([1]; 1,10-phenanthroline (1 mM), without inhibitor 34.0×10^-4)?
**A.** 33.8×10^-4 ΔAbs/min

**Q.** And the “Maturase activity upon addition of inhibitor (in words)” value ([2]; 1 mM 1,10-phenanthroline)?
**A.** halted

**Q.** What about the “Tryptic Activity (Δ Abs/min × 10^-4) released by p45 Maturase from pro-trypsin-like F. oxysporum protease” value ([2]; 1,10-phenanthroline 1 mM, no Zn2+, without inhibitor 54.0, proenzyme alone 1.26) of the same compound?
**A.** 2.9 Δ Abs/min × 10^-4

**Q.** With `O=C(O)CN(CCN(CC(=O)O)CC(=O)O)CC(=O)O` [EDTA] as the compound, how does the “Maturase activity upon addition of inhibitor (in words)” value ([2]; EDTA 1 mM substituted for 1,10-phenanthroline) read?
**A.** Analogous results

**Q.** For “p45 proteolytic enzyme (maturase) from Fusarium oxysporum”, which Tryptic Activity (Δ Abs/min × 10^-4) released from the proenzyme, L-BAPNA assay [3] is on record?
**A.** 0.0054 Δ Abs/min
